Assay results taken from the NIST ThermoML archive (doi:10.1021/je500422t).
Numbers after ± are expanded uncertainties.

Legend:
[1] = Liquid; for mass density: 298.2 K, 101.33 kPa, Vibrating tube method; for Normal boiling temperature: Distillation
[2] = refractive index (Na D-line) (dimensionless); details: 298.2 K; 101.33 kPa; Liquid; Standard Abbe refractometry

mass density [1] [kg/m3] | Normal boiling temperature [1] [°C] | refractive index [2] | SMILES
1061.9 ± 1 | 90.08 ± 1.1 | 1.3685 ± 0.0004 | COC(=O)OC [dimethyl carbonate]
1220.04 ± 1.1 | 101.2 ± 1.1 | 1.37144 ± 0.00039 | O=CO [formic acid]
